Where two headings read alike, the source gives them in different places.
Key:
MDA-MB-231 = experiment: Wound-healing assay; type: cell-based, human; conditions: 100 nM dose
Description: Wound-healing assay. MDA-MB-231 cells are plated onto sterile 24-well plates and allowed to form a confluent cell monolayer (>95% confluence) overnight. Wounds are then inflicted on each cell monolayer using a sterile 200 μL pipette tip. Media are removed, and cells are washed twice with PBS and once with fresh serum-free media. Test latrunculin compounds at various concentrations (100 nM-10 μM) in fresh, serum-free media are added to each well and incubated for 24 h under serum-starved conditions. Media are then removed, and the cells are washed, fixed and stained using Diff-Quick™ staining (Dade Behring Diagnostics, Aguada, Puerto Rico). Cells that have migrated across the inflicted wound are counted under the microscope in three or more randomly selected fields (magnification: 400×). All experiments are conducted independently in triplicate replications.

pyrene-conjugated actin = target: T1, pyrene-conjugated actin (Oryctolagus cuniculus, UniProt P68135); experiment: Pyrene actin polymerization assay; type: biochemical; conditions: for inhibition at 0.1 µM: 100 nM, read-out: Actin polymerization inhibition (%) 100 nM; for inhibition at 0.1 µM / inhibition at 1 µM: compared to vehicle control (DMSO); for inhibition at 1 µM: read-out: Actin polymerization inhibition (%) 1 μM; for IC50: mean ± SEM, triplicate
T1 construct: purchased Cytoskeleton, Denver, Colo
Description: An actin polymerization kit was used to assess the direct actin-binding activity of each analogue at two concentrations: 100 nM and 1 μM. This kit is based on the enhanced fluorescence of pyrene-conjugated actin that occurs during polymerization. When pyrene-G-actin (monomer) forms pyrene-F-actin, fluorescence is enhanced. The enhanced fluorescence is used to follow polymerization over time. Table 2 lists activities as the percentage of actin polymerization inhibition, compared to the negative vehicle control (DMSO), along with calculated IC50.
Pyrene-Actin Polymerization Assays. Actin polymerization assays were performed in accordance with the manufacturer's instructions (Cytoskeleton, Denver, Colo.). Briefly, […] final concentration of monomeric actin (1:10 pyrene labeled) was incubated on ice for 10 min with one of various concentrations of one of the latrunculin derivatives. Samples were then equilibrated 10 min in an ELISA plate reader (BioTek, VT), after which polymerization was induced by adding KCl, MgCl2, and ATP. Compounds 1-14 were tested at 0.1, 0.5, 1.0, and 10 μM. The IC50 for each compound was calculated using GraphPad Prism 5.0.
Pyrene-actin polymerization assays. Actin polymerization inhibitory activity is assessed using the Cytoskeleton Actin Polymerization kit (Cytoskeleton, Denver, Colo.). Briefly, […] (final concentration) of monomeric actin (1:10 pyrene labeled) is incubated on ice for 10 min with one of various concentrations of the test latrunculin compound. Samples are equilibrated 10 min in an ELISA plate reader (BioTek, VT), after which polymerization is induced by adding KCl, MgCl2, and ATP. Compounds are tested at 0.1, 0.5, 1.0, and 10 μM. The IC50 for each compound is calculated using GraphPad Prism 5.0.

[1] = system: microvessel density marker CD31 in endothelial colony forming cells (ECFCs); experiment: Angiogenesis inhibition assay (CD31 in ECFCs); type: cell-based
Description: Effects on Angiogenesis. Angiogenesis inhibition assays were conducted using endothelial colony forming cells (ECFCs). The microvessel density marker CD31 was quantified using confocal laser scanning microscopy and immunohistochemistry.

[2] = system: alkaline phosphatase in C2C12 cells; experiment: Alkaline phosphatase in C2C12 cells (Wnt pathway); type: cell-based; conditions: Mus musculus
From the text: (§1) Effects on Wnt/β-catenin. […] These two compounds affected both alkaline phosphatase and β-catenin levels in C2C12 cells.

β-catenin in C2C12 cells = experiment: Wnt/β-catenin signaling, β-catenin levels in C2C12 cells; type: cell-based
From the text: as §1

[3] = system: prostate cancer cell line PC-3; experiment: Invasion assay, PC-3; type: cell-based, human; conditions: without cytotoxicity
array of kinases = experiment: Kinase profiling; type: binding; conditions: any kinase tested
Description: Latrunculins B and H (compounds 20 and 14, respectively) were tested in a panel of assays including ApoE secretion, anti-angiogenesis, G2/M, Wnt pathway, insulin secretion, and an array of kinase profiling. The G2/M assays include HeLa cell proliferation, apoptosis, DNA content, and condensation, cyclin B, and phosphor-histone H3. […] Alkaline phosphatases may perhaps be a target of the anti-invasive latrunculin 11.

[4] = system: breast, CNS, colon, lung, melanoma, ovarian, and renal cancer cells; experiment: Antiproliferative testing against 60 cell lines (NSC compounds); type: cell-based

For COc1ccc(CC(=O)N2C(=O)SC[C@H]2[C@@]2(OC)C[C@H]3C[C@@H](CC[C@H](C)/C=C\C=C\CC/C(C)=C\C(=O)O3)O2)cc1 [Compound 11, 17-O-Methyl-N-(7′-methoxyphenylacetyl)latrunculin A], the anti-migratory activity (MDA-MB-231) was “potent anti-migratory”, the inhibition at 0.1 µM (pyrene-conjugated actin) was 0% and the inhibition at 1 µM (pyrene-conjugated actin) was 13%. It also gave an IC50 (pyrene-conjugated actin) greater than 10000 nM, an inhibition at 2 µM [1] of 100% and an inhibition at 10 µM [1] of 100%. For the same compound, the IC50 ([1]; read-out: IC50 CD31 in ECFCs) was less than 43 nM, the IC50 [2] was 4 nM and the Wnt/β-catenin signaling (β-catenin in C2C12 cells) was “strongly inhibited”. The IC50 (β-catenin in C2C12 cells; Mus musculus) was 7 nM and the “anti-invasive activity against PC-3” value [3] was “potent anti-invasive activity”.
For C/C1=C/C(=O)O[C@@H]2C[C@@H](CC[C@H](C)/C=C\C=C\CC1)O[C@@](O)([C@@H]1CSC(=O)N1CO)C2 [Compound 14, N-Hydroxymethyllatrunculin A], the inhibition at 0.1 µM (pyrene-conjugated actin) was 35%, the inhibition at 1 µM (pyrene-conjugated actin) was 90% and the IC50 (pyrene-conjugated actin) was 210 ± 54 nM. For the same compound, the affinity toward kinases (array of kinases) was “Neither compound 20 nor compound 14 showed affinity toward any kinase tested”, the inhibition at 2 µM [1] was 100% and the inhibition at 10 µM [1] was 100%. The IC50 ([1]; read-out: IC50 CD31 in ECFCs) was 63 nM, the IC50 ([1]; read-out: antiangiogenic activity IC50 range) was 40 to 820 nM and the “number of the 60 cell lines tested with antiproliferative activity” value ([4]; dose of 10 μM) was 18. It also gave a log10GI50 ([4]; five-points dose-response, range over active cell lines) of −7.13 to −7.83.
